Reference: patent US4170640A, “Antibiotic mixtures” (priority 1977, dated 1979)

Experiments:
E. coli B [1] = experiment: Amplification of the antibacterial (cell-killing) activity of phleomycin in stationary phase cultures, viable cell counts; format: cell-based; settings: concentration of optimum activity after phleomycin pretreatment (2 μg/ml, 30 min, 37°); 120 min treatment
Protocol: The ability of the compounds to potentiate the cell-killing effects of phleomycin was measured by the following procedure. Stationary phase cultures of E. coli B, with or without the compounds under test, were resuspended in growth medium containing phleomycin (2 μg/ml) and incubated at 37° for 30 minutes. The cells were then membrane filtered (0.45 μm pore size; 2.5 cms), washed with growth medium (20 μg/ml) and resuspended in growth medium (20 μg/ml) at 37° C. containing various concentrations, between 10^-10 M and 10^-2 M, of the compound under test. As a control, bacteria were exposed to the same range of concentrations of each compound but without the phleomycin pretreatment. To determine viable cell numbers aliquots were taken from each cell suspension after 120 minutes treatments, plated on agar medium and incubated overnight at 37° C. All operations with amplifying agents were carried out in near dark conditions.
Compounds were designated as active when the increase in activity with the combined treatment was greater than could be explained by the effects of the two compounds when administered separately.

E. coli B [2] = experiment: as above; format: cell-based; settings: envisaged from present studies; phleomycin at about 1 mg/l (or mg/kg)
Walker rat carcinoma 256 = experiment: Survival of rats bearing Walker rat carcinoma 256 ascites tumour, treated with phleomycin plus amplifier; format: in vivo, Sprague Dawley rats; settings: for amplification of the activity of phleomycin (survival of tumour-bearing rats): doses as in Table 2
Protocol: Walker rat carcinoma 256 as the ascites form was passaged in female Sprague Dawley rats. […] Intraperitoneal injections of 0.1 ml (10^6 viable cells) of the suspension were then made into test groups of 6-8 male Sprague Dawley rats.
Phleomycin dissolved in phosphate-buffered saline was given to animals in the test groups as 0.1 ml intraperitoneal injections twice daily; each injection was followed by a 0.1 ml intraperitoneal injection of the prospective amplifier. The treatments were given for 5-10 days, at varying concentrations of the phleomycin and amplifier.
The method of evaluating the effectiveness of the various treatments was based on those used in the screening programme of the Drug Evaluation Branch, National Cancer Institute, National Institute of Health, Bethesda, Maryland, U.S.A. (Cancer Chemotherapy Reports, Vol. 3, No. 2, September 1972). Thus the effectiveness of the drug treatment was measured by the increased survival time, measured in days, of the treated animals over control ones which received no drugs. Dead animals were counted daily, and median survival times (MST) calculated for all groups. […] The ratios (test group median survival time) divided by (control group median survival time)× 100 (T/C) were calculated for all the test groups.

[3] = 4,4'-bis(trimethylammonio)diphenylmethane dichloride 270 MKD alone (phleomycin 0), ×2 daily
[4] = phleomycin 4 MKD + 4,4'-bis(trimethylammonio)diphenylmethane dichloride 270 MKD, i.p. ×2 daily
[5] = Auramin 0 7.6 MKD alone (phleomycin 0), ×2 daily
[6] = phleomycin 8 MKD + Auramin 0 7.6 MKD, i.p. ×2 daily
[7] = Neutral Red 20 MKD alone (phleomycin 0), ×2 daily
[8] = phleomycin 8 MKD + Neutral Red 20 MKD, i.p. ×2 daily
[9] = phleomycin 16 MKD + Neutral Red 20 MKD, i.p. ×2 daily
[10] = phleomycin 32 MKD + Neutral Red 20 MKD, i.p. ×2 daily
[11] = Malachite Green 52 MKD alone (phleomycin 0), ×2 daily
[12] = phleomycin 8 MKD + Malachite Green 52 MKD, i.p. ×2 daily
[13] = Crystal Violet 0.5 MKD alone (phleomycin 0), twice daily from days 2 to 10
[14] = phleomycin 4 MKD + Crystal Violet 0.5 MKD, i.p. twice daily from days 2 to 10
[15] = Brilliant Green 640 MKD alone (phleomycin 0), ×2 daily
[16] = phleomycin 5 MKD + Brilliant Green 640 MKD, i.p. ×2 daily
[17] = phleomycin 10 MKD + Brilliant Green 640 MKD, i.p. ×2 daily
[18] = phleomycin 20 MKD + Brilliant Green 640 MKD, i.p. ×2 daily

CC[n+]1c(-c2ccccc2)c2cc(N)ccc2c2ccc(N)cc21.[Br-] [Ethidium bromide]
Optimum Concentration tested (E. coli B [1]): 13 µM | adequate concentration of amplifier in conjunction with phleomycin (E. coli B [2]): 10^-4 molar

C[N+](C)(C)c1ccc(Cc2ccc([N+](C)(C)C)cc2)cc1 [4,4'-bis(trimethylammonio)diphenylmethane]
Optimum Concentration tested (E. coli B [1]): 29 µM | MST (Walker rat carcinoma 256; [3]): 8.0 days | T/C (Walker rat carcinoma 256; [3]): 100 | amplification of the activity of phleomycin (survival of tumour-bearing rats) (Walker rat carcinoma 256): amplified the activity of phleomycin | MST (Walker rat carcinoma 256; [4]): 10.0 days | T/C (Walker rat carcinoma 256; [4]): 125 | adequate concentration of amplifier in conjunction with phleomycin (E. coli B [2]): 10^-3 molar

Nc1cc2nc3ccccc3oc-2cc1=O [2-aminophenoxazone]
Optimum Concentration tested (E. coli B [1]): 25 µM

CC[n+]1c(C=Cc2ccc(N(C)C)cc2)ccc2ccccc21.[Cl-] [2-p-dimethylaminostyryl-N-ethyl-quinolinium chloride]
Optimum Concentration tested (E. coli B [1]): 0.3 µM

Cc1cc2nc3cc(C)c(N)cc3[n+](-c3ccccc3)c2cc1N.[Cl-] [Safranin T]
Optimum Concentration tested (E. coli B [1]): 14 µM

CN(C)c1ccc2nc3ccc(=[N+](C)C)cc-3sc2c1.[Cl-] [Methylene Blue]
Optimum Concentration tested (E. coli B [1]): 13 µM

CCN(CC)CCCC(C)Nc1c2ccc(Cl)cc2nc2ccc(OC)cc12 (stereo not shown) [Quinacrine]
Optimum Concentration tested (E. coli B [1]): 39 µM

CN(C)c1ccc(C(=N)c2ccc(N(C)C)cc2)cc1.Cl [Auramin O]
Optimum Concentration tested (E. coli B [1]): 3.3 µM | MST (Walker rat carcinoma 256; [5]): 9.5 days | T/C (Walker rat carcinoma 256; [5]): 95 | amplification of the activity of phleomycin (survival of tumour-bearing rats) (Walker rat carcinoma 256): amplified the activity of phleomycin | MST (Walker rat carcinoma 256; [6]): 18 days | T/C (Walker rat carcinoma 256; [6]): > 180

CCNc1ccc2c(-c3ccccc3C(=O)O)c3ccc(=[N+](CC)CC)cc-3oc2c1.[Cl-] [Rhodamine G]
Optimum Concentration tested (E. coli B [1]): 120 µM

C[N+](C)(C)c1ccc2cc3ccc([N+](C)(C)C)cc3c(-c3c4cc([N+](C)(C)C)ccc4cc4ccc([N+](C)(C)C)cc34)c2c1.[Cl-].[Cl-].[Cl-].[Cl-] [2,2', 7,7'-tetrakis(trimethylammonio)-9,9'-dianthracene tetrachloride]
Optimum Concentration tested (E. coli B [1]): 50 µM

C[N+](C)(C)c1ccc(-c2ccc([N+](C)(C)C)cc2)cc1.[Cl-].[Cl-] [4,4'-bis(trimethylammonio)diphenyl-dichloride]
Optimum Concentration tested (E. coli B [1]): 310 µM

Methyl Violet
Optimum Concentration tested (E. coli B [1]): 1.6 µM

CN(C)c1ccc2cc3ccc(=[N+](C)C)cc-3oc2c1.[Cl-] [Pyronin Y]
Optimum Concentration tested (E. coli B [1]): 170 µM

Cc1cc2nc3ccc(N(C)C)cc3nc2cc1N.Cl [Neutral Red]
Optimum Concentration tested (E. coli B [1]): 33 µM | enhancement of the ability of phleomycin to prolong the survival of rats carrying tumours (Walker rat carcinoma 256; Neutral Red 20 μg/kg/day with phleomycin at 8, 16 or 32 micrograms/kg/day): active | MST (Walker rat carcinoma 256; [7]): 11.0 days | T/C (Walker rat carcinoma 256; [7]): 79 | MST (Walker rat carcinoma 256; [8]): 20 days | T/C (Walker rat carcinoma 256; [8]): 143 | MST (Walker rat carcinoma 256; [9]): > 30 days | T/C (Walker rat carcinoma 256; [9]): > 214 | MST (Walker rat carcinoma 256; [10]): > 30 days | T/C (Walker rat carcinoma 256; [10]): > 214

CN(C)c1ccc(C(=C2C=CC(=[N+](C)C)C=C2)c2ccccc2)cc1.[Cl-] [Malachite green]
Optimum Concentration tested (E. coli B [1]): 3 µM | MST (Walker rat carcinoma 256; [11]): 8 days | T/C (Walker rat carcinoma 256; [11]): 100 | amplification of the activity of phleomycin (survival of tumour-bearing rats) (Walker rat carcinoma 256): amplified the activity of phleomycin | MST (Walker rat carcinoma 256; [12]): 16.5 days | T/C (Walker rat carcinoma 256; [12]): 206

Cc1cc2nc3ccc(N(C)C)cc3[s+]c2cc1N.[Cl-] [Toluidine Blue]
Optimum Concentration tested (E. coli B [1]): 16 µM

CN(C)c1ccc(C(=C2C=CC(=[N+](C)C)C=C2)c2ccc(N(C)C)cc2)cc1 [Crystal Violet]
Optimum Concentration tested (E. coli B [1]): 2.4 µM | MST (Walker rat carcinoma 256; [13]): 12.5 days | T/C (Walker rat carcinoma 256; [13]): 104 | amplification of the activity of phleomycin (survival of tumour-bearing rats) (Walker rat carcinoma 256): amplified the activity of phleomycin | MST (Walker rat carcinoma 256; [14]): > 30 days | T/C (Walker rat carcinoma 256; [14]): 250 | adequate concentration of amplifier in conjunction with phleomycin (E. coli B [2]): 10^-7 molar

Brilliant Cresol Blue
Optimum Concentration tested (E. coli B [1]): 340 µM

CCN(CC)c1ccc(C(=C2C=CC(=[N+](CC)CC)C=C2)c2ccccc2)cc1.O=S(=O)([O-])O [Brilliant Green]
Optimum Concentration tested (E. coli B [1]): 9.6 µM | MST (Walker rat carcinoma 256; [15]): 9 days | T/C (Walker rat carcinoma 256; [15]): 112 | amplification of the activity of phleomycin (survival of tumour-bearing rats) (Walker rat carcinoma 256): amplified the activity of phleomycin | MST (Walker rat carcinoma 256; [16]): 10 days | T/C (Walker rat carcinoma 256; [16]): 125 | MST (Walker rat carcinoma 256; [17]): 11 days | T/C (Walker rat carcinoma 256; [17]): 138 | MST (Walker rat carcinoma 256; [18]): 11 days | T/C (Walker rat carcinoma 256; [18]): 138

CC[N+](CC)=c1ccc2nc3c(cc(N)c4ccccc43)oc-2c1 [Nile Blue]
Optimum Concentration tested (E. coli B [1]): 2.7 µM
